Literature values, collected in article PMC11322901 (Chemical Science, 2024).

Key:
GST = settings: read-out: Ki of monovalent EA inhibitor
CaM(Ca2+) = CaM(Ca2+) (Mus musculus, UniProt P0DP26)

Ki (GST) [nM] | Molecule | Affinity for CaM(Ca2+) (CaM(Ca2+))
1000 to 5000 | C=C(CC)C(=O)c1ccc(OCC(=O)O)c(Cl)c1Cl [EA] | 
 | mastoparan | low nanomolar
